Measured values from patent publication US7491849B2, “Oligoamine compounds and derivatives thereof for cancer therapy” (priority 2001, dated 2009).

Columns and labels:
DU145 = experiment: MTT assay, tumor cell growth, DU145; format: cell-based; conditions: 6 days incubation, read-out: ID50 (μM) values for Human Tumor Cell Lines, DU145
Experimental: (§1) Effect of Saturated Oligoamines on Human Prostate Tumor Cell Growth by the MTT assay. Saturated oligoamines inhibited prostate cancer cell growth in vitro. DU-145 cells were most sensitive and PC-3 cells were less sensitive to the effects of oligoamines. In general, ID50 values of less than 0.5 μM were obtained (Table 2). Even though the PC-3 cells were relatively more resistant to the oligoamines, at a 5 μM concentration the oligoamines reduced the cell number to less than 1% of the control on day 6 of incubation. Tissue cultures and the MTT assay were performed as follows.
(§2) Tissue Culture. Cells were seeded into 75 cm^2 culture flasks with 15 ml of Eagle's minimal essential medium supplemented with 10% fetal calf serum and nonessential amino acids. The flasks were incubated in a humidified 95% air/5% CO2 atmosphere. The cells were grown for at least 24 h to ensure that they are in the log phase of growth and then they were treated with the oligoamines. Cells were harvested by treatment for 5 min with STV (saline A, 0.05% trypsin, 0.02% EDTA) at 37° C. The flasks were rapped on the lab bench, pipetted several times and aliquots of cell suspension were withdrawn and counted using a Coulter particle counter that has been standardized for counting each cell line using a hemacytometer.
(§3) MTT Assay: Trypsinized cell suspensions were diluted to seed 80 μl suspensions containing 500 cells in each well of a 96 well Corning microtiter plate and incubated overnight at 37° C. in a humidified incubator in 5% CO2. 20 μl of appropriately diluted stock solution of each drug were added to the middle 8 columns of cell suspension in the microtiter plates. Each drug concentration was run in quadruplicate. Outer columns of the plates were used for buffer controls. Cells were incubated with the drug for 6 days at 37° C. in 5% CO2/H2O atmosphere. 25 μl of 5 mg/ml solution of 3-(4,5-dimethylthiazol-2-yl)-2,5-diphenyl tetrazolium bromide (MTT) were added to each well and incubated for 4 hours at 37° C. in 5% CO2/H2O incubator. Cells were lysed by incubating overnight with 100 μl lysis buffer (500 ml of the lysis buffer contains: 100 g lauryl sulfate (SDS), 250 ml of N,N-dimethylformamide, and 2 ml of glacial acetic acid, made up to volume with water; pH 4.8).
(§4) The color was monitored at room temperature at 570 nm in a E-max Precision Microplate Reader (Molecular Devices Corporation, Sunnyvale, Calif.) and data was analyzed using cell survival software supplied by Molecular Devices Corporation.

DuPro = experiment: MTT assay, tumor cell growth, DuPro; format: cell-based; conditions: 6 days incubation, read-out: ID50 (μM) values for Human Tumor Cell Lines, DuPro
Experimental: as §1, §2, §3, §4

PC-3 = experiment: MTT assay, tumor cell growth, PC-3; format: cell-based; conditions: 6 days incubation, read-out: ID50 (μM) values for Human Tumor Cell Lines, PC-3
Experimental: as §1, §2, §3, §4

Calf-thymus DNA = Calf-thymus DNA aggregation (absorbance at 320 nm); format: biochemical; conditions: 50 mM NaCl, 1 mM Na-cacodylate pH 7.0
Experimental: Calf-thymus DNA aggregation by spermine and oligoamines.
Test for DNA Aggregation: DNA aggregation was studied using a Perkin-Elmer Lambda 25 UV/visible spectrophotometer connected to a PTP 6 heating unit using a previously published procedure (see Basu, H S and Marton, L J, “The interaction of spermine and pentamines with DNA,” Biochemical Journal 244:243-246 (1987)). Aggregation was determined in 50 mM NaCl, 1 mM Na-cacodylate pH 7.0 buffer by observing the increase in DNA absorbance (approximately 0.5 A260 units) at 320 nm.

PC-3 Cells = experiment: Cellular polyamine and oligoamine levels, PC-3 cells (HPLC); format: cell-based
Experimental: (§5) Cellular Uptake of Oligoamines. There was considerable uptake of oligoamines by the cancer cell lines; see Table 3A (DuPro cells) and Table 3B (PC-3 cells). […] While not wishing to be limited by any particular theory of operation, the cytotoxicity is likely related to their strong aggregation effect on DNA.
(§6) Polyamine Analysis. An appropriate number of cells were taken from harvested samples and centrifuged at 1000 rpm at 4° C. for 5 min. The cells were washed twice with chilled Dulbecco's isotonic phosphate buffer (pH 7.4) by centrifugation at 1000 rpm at 4° C. and resuspended in the same buffer. After the final centrifugation, the supernatant was decanted, and […] of 8% sulfosalycilic acid was added to the cell pellet. The cells were sonicated, and the mixture was kept at 4° C. for at least 1 h. After centrifugation at 8000 g for 5 min, the supernatant was removed for analysis. An appropriate volume (50-100 μl) was fluorescence-labeled by derivatizing with dansyl chloride. Labeled polyamines were loaded onto a C-18 high-performance liquid chromatography column and separated by gradient elution with acetonitrile/water at 50° C. Peaks were detected and quantitated using Shimadzu HPLC fluorescence monitor coupled with a Spectra-Physics peak integrator. Because polyamine levels vary with environmental conditions, control cultures were sampled for each experiment.

DuPro Cells = experiment: Cellular polyamine and oligoamine levels, DuPro cells (HPLC); format: cell-based
Experimental: as §5, §6

LnCap = experiment: MTT assay, tumor cell growth, LnCap; format: cell-based; conditions: 6 days incubation, read-out: ID50 (μM) values for Human Tumor Cell Lines, LnCap
Experimental: as §1, §2, §3, §4

[1] = PC-3, Day 4 of Treatment, analog conc. 1 μM
[2] = PC-3, Day 4 of Treatment, analog conc. 5 μM
[3] = PC-3, Day 6 of Treatment, analog conc. 1 μM
[4] = Day 4 of Treatment, analog conc. 0.8 μM
[5] = Day 4 of Treatment, analog conc. 1.6 μM
[6] = Day 6 of Treatment, analog conc. 0.8 μM

Row | SMILES | IC50 (DU145) [µM] | IC50 (DuPro) [µM] | IC50 (PC-3) [µM] | Conc. (μM) at the start of DNA Aggregation (Calf-thymus DNA) [µM] | Polyamine levels, Analog (cellular oligoamine level) (PC-3 Cells; [1]) [nmoles/10^6 cells] | Polyamine levels, Analog (cellular oligoamine level) (PC-3 Cells; [2]) [nmoles/10^6 cells] | Polyamine levels, Analog (cellular oligoamine level) (PC-3 Cells; [3]) [nmoles/10^6 cells] | Polyamine levels, Analog (cellular oligoamine level) (DuPro Cells; [4]) [nmoles/10^6 cells] | Polyamine levels, Put (DuPro Cells; [4]) [nmoles/10^6 cells] | Polyamine levels, Spm (DuPro Cells; [4]) [nmoles/10^6 cells] | Polyamine levels, Analog (cellular oligoamine level) (DuPro Cells; [5]) [nmoles/10^6 cells] | Polyamine levels, Put (DuPro Cells; [5]) [nmoles/10^6 cells] | Polyamine levels, Analog (cellular oligoamine level) (DuPro Cells; [6]) [nmoles/10^6 cells] | Polyamine levels, Put (DuPro Cells; [6]) [nmoles/10^6 cells] | IC50 (LnCap) [µM] | other results
1 | CCNCCCCNCCCCNCCCCNCCCCNCCCCNCCCCNCCCCNCC.Cl.Cl.Cl.Cl.Cl.Cl.Cl.Cl [SL-11160] | 0.13 | 0.55 | 0.4 | 4.5 | 0.005 | 0.011 | 0.007 | 0.575 | 0.430 | 0.222 | 0.775 | 0.412 | 0.410 | 0.675 | 0.15 | Polyamine levels, Spd (PC-3 Cells; [1]): 0.097 nmoles/10^6 cells; Polyamine levels, Spm (PC-3 Cells; [1]): 0.502 nmoles/10^6 cells; Polyamine levels, Spd (PC-3 Cells; [2]): 0.077 nmoles/10^6 cells; Polyamine levels, Spm (PC-3 Cells; [2]): 0.525 nmoles/10^6 cells; Polyamine levels, Spd (PC-3 Cells; [3]): 0.085 nmoles/10^6 cells; Polyamine levels, Spm (PC-3 Cells; [3]): 0.180 nmoles/10^6 cells; Polyamine levels, Spd (DuPro Cells; [4]): 0.897 nmoles/10^6 cells; Polyamine levels, Spm (DuPro Cells; [5]): 0.195 nmoles/10^6 cells; Polyamine levels, Spd (DuPro Cells; [6]): 1.470 nmoles/10^6 cells; Polyamine levels, Spm (DuPro Cells; [6]): 0.290 nmoles/10^6 cells
2 | CCNCCCCNCCCCNCCCCNCCCCNCCCCNCCCCNCCCCNCCCCNCCCCNCCCCNCCCCNCCCCNCCCCNCC.Cl.Cl.Cl.Cl.Cl.Cl.Cl.Cl.Cl.Cl.Cl.Cl.Cl.Cl [SL-11175] | 0.24 | 0.35 | 0.5 | 2.0 | 0.055 | 0.128 | 0.08 | 0.145 | 0.157 | 0.050 | 0.150 | 0.410 | 0.023 | 0.155 | 0.32 | Polyamine levels, Put (PC-3 Cells; [1]): 0.515 nmoles/10^6 cells; Polyamine levels, Put (PC-3 Cells; [2]): 0.519 nmoles/10^6 cells; Polyamine levels, Put (PC-3 Cells; [3]): 0.76 nmoles/10^6 cells
3 | NCCCNCCCCNCCCN [Spermine, reference compound] | – | – | – | 88.5 | – | – | – | – | – | – | – | – | – | – | – | –
